Measurements taken from patent US7208281B2 (priority 2001, dated 2007).
Read-outs that look alike come from different tables or passages of the source.

How the values were obtained:
[1] = system: PrPsc
[2] = biological target: PrPC (Homo sapiens, UniProt P04156); settings: microtiter plate coated with fibronectin
[3] = system: PrPsc; remark: listed apart in the source
[4] = biological target: PrPC (Bos taurus, UniProt P10279); settings: fibronectin coupled with europium nanobeads, incubated with sample
[5] = system: PrPsc; settings: cited from earlier work
[6] = system: prions; settings: cited from earlier work

Sequence of PrPC (Bos taurus, UniProt P10279) (P10279 25-241 limits assumed): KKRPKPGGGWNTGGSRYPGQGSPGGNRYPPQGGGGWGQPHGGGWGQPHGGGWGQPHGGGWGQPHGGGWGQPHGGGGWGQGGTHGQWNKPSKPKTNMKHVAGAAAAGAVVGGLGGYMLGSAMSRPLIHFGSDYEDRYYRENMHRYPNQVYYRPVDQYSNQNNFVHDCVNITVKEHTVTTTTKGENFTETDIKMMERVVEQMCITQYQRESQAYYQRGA

Substance: fibronectin
- adherence of pathological PrP (PrPsc) [1]: adheres
- adherence of normal PrP (PrPc) [2]: does not
- adherence of pathological PrP (PrPsc) [3]: adheres
- adherence of normal PrP (PrPc) [4]: does not

Substance: plasminogen
- binding of PrPsc [5]: binding specifically

Substance: poly-b-xylose-2,3-disulphonate [Pentosan]
- inhibition of the production of prions [6]: inhibits the production of prions most strongly
